From ChEMBL document CHEMBL5465560, “Selectivity Literature for EUbOPEN Chemogenomic Library” (2024)

Key:
[1] = molecular target: T1, Inhibitor of nuclear factor kappa-B kinase subunit beta (Homo sapiens) (UniProt O14920); assay: Selectivity interaction (KinomeScan (DiscoverX)) EUB0000229b IKBKB; conditions: at 10 µM
T1 sequence (whole entry): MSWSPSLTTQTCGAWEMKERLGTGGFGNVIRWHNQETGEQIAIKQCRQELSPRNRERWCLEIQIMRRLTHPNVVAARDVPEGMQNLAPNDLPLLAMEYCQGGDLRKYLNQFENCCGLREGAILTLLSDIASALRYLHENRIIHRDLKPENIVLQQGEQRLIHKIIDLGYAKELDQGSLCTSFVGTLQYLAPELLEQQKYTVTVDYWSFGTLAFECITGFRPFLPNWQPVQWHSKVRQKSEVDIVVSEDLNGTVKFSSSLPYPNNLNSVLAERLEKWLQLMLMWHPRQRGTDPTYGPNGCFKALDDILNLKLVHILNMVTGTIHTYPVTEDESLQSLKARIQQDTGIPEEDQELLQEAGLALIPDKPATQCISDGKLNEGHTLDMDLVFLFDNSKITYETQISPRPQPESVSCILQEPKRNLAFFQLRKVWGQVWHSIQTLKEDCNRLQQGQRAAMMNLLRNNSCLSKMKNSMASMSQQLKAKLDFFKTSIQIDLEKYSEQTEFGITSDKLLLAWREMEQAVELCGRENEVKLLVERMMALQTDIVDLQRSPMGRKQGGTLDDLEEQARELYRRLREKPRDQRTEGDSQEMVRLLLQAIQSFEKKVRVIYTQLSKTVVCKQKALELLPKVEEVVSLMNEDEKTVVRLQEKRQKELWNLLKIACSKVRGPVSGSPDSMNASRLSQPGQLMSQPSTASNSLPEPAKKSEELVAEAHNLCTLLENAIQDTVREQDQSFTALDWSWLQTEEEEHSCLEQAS

[2] = molecular target: Platelet-derived growth factor receptor beta (Homo sapiens, UniProt P09619); assay: Selectivity interaction (KinomeScan (DiscoverX)) EUB0000229b PDGFRB; conditions: at 10 µM
[3] = test system: Epidermal growth factor receptor (Homo sapiens), P00533 [UNDEFINED MUTATION]; assay: Selectivity interaction (KinomeScan (DiscoverX)) EUB0000045b EGFR; conditions: at 1 µM
[4] = molecular target: T2, Inhibitor of nuclear factor kappa-B kinase subunit epsilon (Homo sapiens) (UniProt Q14164); assay: Selectivity interaction (KinomeScan (DiscoverX)) EUB0000695a IKBKE; conditions: at 100 nM
T2 sequence (whole entry): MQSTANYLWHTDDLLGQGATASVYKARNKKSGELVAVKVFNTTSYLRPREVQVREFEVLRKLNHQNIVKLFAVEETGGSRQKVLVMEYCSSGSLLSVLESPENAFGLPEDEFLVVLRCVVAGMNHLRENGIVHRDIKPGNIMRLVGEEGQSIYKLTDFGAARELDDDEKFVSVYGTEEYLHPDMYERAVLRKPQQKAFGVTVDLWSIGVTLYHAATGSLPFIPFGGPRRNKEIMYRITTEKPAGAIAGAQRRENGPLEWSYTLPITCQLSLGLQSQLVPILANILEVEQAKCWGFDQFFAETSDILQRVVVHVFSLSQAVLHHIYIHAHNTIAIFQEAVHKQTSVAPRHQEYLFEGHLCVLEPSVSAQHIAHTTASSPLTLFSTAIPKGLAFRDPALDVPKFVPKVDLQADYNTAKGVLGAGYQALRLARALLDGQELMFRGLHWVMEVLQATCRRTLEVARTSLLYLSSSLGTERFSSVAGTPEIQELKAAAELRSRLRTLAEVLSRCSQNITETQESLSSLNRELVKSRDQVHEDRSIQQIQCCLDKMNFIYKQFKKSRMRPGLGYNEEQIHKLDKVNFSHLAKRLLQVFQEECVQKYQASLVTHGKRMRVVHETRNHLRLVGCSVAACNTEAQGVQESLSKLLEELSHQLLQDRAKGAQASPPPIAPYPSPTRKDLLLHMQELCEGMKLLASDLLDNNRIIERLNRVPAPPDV

[5] = molecular target: Ribosomal protein S6 kinase alpha-1 (Homo sapiens, UniProt Q15418); assay: Selectivity interaction (KinomeScan (DiscoverX)) EUB0001079a RPS6KA1; conditions: at 1 µM
[6] = molecular target: Serine/threonine-protein kinase MRCK alpha (Homo sapiens) (UniProt Q5VT25); conditions: at 10 µM
[7] = molecular target: Leukotriene B4 receptor 1 (Homo sapiens) (UniProt Q15722); assay: Selectivity interaction (Eurofins CEREP Diversity Profile (receptors and ion channels)) EUB0000279b LTB4R; conditions: at 10 µM
[8] = molecular target: Dual specificity testis-specific protein kinase 1 (Homo sapiens) (UniProt Q15569); assay: Selectivity interaction (KinomeScan (DiscoverX)) EUB0000618a TESK1; conditions: at 10 µM
[9] = molecular target: T3, cGMP-dependent protein kinase 1 (Homo sapiens) (UniProt Q13976); assay: Selectivity interaction (Kinase panel (Invitrogen)) EUB0000639a PRKG1; conditions: at 200 nM
T3 sequence (whole entry): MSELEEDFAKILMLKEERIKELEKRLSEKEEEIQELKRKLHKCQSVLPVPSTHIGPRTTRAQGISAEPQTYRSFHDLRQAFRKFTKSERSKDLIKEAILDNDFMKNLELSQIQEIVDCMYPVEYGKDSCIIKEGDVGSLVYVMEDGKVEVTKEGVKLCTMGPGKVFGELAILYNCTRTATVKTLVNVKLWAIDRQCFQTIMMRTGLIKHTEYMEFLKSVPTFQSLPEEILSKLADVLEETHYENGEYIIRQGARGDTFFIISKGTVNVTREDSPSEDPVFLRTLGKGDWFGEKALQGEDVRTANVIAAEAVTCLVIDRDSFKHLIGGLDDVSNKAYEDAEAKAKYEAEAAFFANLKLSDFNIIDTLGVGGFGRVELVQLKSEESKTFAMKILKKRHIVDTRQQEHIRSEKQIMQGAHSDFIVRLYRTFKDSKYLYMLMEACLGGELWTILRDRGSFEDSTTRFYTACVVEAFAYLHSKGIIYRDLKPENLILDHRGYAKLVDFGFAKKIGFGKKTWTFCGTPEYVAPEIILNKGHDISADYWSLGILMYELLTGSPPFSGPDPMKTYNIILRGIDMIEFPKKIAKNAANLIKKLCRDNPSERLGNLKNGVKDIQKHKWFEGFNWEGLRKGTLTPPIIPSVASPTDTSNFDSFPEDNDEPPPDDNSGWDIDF

[10] = molecular target: Mitogen-activated protein kinase 10 (Homo sapiens, UniProt P53779); assay: Selectivity interaction (KinomeScan (DiscoverX)) EUB0000655a MAPK10; conditions: at 10 µM
[11] = molecular target: Serine/threonine-protein kinase N2 (Homo sapiens, UniProt Q16513); assay: Selectivity interaction (KinomeScan (DiscoverX)) EUB0000655a PKN2; conditions: at 10 µM

Chain of Serine/threonine-protein kinase MRCK alpha (Homo sapiens) (Q5VT25 whole entry): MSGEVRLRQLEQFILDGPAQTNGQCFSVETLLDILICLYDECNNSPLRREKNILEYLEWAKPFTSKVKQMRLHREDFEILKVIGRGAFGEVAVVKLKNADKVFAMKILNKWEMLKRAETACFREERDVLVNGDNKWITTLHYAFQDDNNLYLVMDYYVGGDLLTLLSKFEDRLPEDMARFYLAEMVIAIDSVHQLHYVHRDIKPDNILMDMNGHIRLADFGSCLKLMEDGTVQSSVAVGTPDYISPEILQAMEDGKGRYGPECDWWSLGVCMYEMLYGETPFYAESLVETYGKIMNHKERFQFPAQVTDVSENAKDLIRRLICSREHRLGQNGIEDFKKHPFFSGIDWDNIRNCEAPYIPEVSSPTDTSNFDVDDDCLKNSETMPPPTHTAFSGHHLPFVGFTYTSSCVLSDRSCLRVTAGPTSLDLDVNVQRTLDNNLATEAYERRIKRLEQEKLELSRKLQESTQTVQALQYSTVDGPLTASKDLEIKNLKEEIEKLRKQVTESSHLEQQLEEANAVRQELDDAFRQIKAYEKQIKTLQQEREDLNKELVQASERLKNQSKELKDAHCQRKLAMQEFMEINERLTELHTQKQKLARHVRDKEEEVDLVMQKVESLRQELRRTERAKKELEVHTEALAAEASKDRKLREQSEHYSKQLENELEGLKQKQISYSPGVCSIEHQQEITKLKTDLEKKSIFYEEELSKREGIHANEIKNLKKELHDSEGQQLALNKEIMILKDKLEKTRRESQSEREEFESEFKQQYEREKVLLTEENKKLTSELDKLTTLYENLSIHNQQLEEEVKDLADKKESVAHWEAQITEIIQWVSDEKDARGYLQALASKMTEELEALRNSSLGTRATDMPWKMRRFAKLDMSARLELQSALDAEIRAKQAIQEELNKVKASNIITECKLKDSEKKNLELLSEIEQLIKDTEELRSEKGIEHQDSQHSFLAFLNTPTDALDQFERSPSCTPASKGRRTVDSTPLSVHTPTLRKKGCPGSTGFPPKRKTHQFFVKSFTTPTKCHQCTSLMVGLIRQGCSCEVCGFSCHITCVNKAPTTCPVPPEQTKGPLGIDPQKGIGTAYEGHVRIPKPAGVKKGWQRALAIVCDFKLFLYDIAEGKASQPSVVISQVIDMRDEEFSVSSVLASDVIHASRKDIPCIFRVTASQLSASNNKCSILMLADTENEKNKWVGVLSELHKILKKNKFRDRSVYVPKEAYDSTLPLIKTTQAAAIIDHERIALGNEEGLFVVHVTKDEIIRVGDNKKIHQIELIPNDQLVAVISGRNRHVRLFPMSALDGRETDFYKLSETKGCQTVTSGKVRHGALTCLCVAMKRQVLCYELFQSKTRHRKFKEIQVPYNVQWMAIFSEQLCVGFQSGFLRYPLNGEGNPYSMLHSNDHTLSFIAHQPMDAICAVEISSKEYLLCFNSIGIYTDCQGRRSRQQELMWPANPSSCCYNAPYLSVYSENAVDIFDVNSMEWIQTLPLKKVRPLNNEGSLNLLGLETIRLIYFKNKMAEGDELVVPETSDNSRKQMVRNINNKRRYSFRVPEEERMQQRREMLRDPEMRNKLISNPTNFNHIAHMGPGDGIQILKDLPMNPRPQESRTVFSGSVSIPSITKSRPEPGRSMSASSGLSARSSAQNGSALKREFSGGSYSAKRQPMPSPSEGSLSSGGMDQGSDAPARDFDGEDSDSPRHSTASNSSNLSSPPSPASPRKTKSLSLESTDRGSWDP
Chain of Ribosomal protein S6 kinase alpha-1 (Q15418 whole entry): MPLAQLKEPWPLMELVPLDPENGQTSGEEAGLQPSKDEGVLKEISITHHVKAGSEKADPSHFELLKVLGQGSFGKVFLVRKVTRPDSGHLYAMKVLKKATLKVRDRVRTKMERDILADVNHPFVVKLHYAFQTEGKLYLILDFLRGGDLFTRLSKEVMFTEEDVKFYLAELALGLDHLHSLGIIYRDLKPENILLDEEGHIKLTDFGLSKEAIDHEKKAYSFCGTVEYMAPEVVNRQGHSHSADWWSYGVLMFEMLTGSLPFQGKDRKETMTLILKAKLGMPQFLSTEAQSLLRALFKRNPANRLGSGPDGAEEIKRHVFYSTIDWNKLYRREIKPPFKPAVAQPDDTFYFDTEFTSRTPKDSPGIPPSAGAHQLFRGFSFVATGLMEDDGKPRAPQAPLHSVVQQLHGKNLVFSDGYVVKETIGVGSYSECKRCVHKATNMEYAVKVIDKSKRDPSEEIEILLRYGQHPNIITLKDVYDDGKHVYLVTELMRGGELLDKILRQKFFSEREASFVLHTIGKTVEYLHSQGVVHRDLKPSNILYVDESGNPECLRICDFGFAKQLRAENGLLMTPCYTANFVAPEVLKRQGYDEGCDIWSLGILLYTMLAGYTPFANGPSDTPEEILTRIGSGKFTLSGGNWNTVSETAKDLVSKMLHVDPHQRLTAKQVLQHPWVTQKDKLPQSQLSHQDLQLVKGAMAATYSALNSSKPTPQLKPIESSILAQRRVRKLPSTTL
Chain of Mitogen-activated protein kinase 10 (P53779 whole entry): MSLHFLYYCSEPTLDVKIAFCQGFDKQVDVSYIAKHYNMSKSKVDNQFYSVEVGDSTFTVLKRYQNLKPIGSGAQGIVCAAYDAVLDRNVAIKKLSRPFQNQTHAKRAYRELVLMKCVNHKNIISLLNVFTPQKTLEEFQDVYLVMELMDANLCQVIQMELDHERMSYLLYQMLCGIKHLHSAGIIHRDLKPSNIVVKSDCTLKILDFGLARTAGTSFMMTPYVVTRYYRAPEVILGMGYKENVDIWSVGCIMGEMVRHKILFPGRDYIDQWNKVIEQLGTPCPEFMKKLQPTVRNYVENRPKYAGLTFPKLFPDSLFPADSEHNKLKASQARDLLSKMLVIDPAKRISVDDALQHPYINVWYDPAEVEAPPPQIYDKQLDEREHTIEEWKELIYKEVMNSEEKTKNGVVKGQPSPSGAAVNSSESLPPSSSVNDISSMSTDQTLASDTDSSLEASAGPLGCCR
Chain of Epidermal growth factor receptor (Homo sapiens), P00533 [UNDEFINED MUTATION] (P00533 whole entry, looked up, change not shown): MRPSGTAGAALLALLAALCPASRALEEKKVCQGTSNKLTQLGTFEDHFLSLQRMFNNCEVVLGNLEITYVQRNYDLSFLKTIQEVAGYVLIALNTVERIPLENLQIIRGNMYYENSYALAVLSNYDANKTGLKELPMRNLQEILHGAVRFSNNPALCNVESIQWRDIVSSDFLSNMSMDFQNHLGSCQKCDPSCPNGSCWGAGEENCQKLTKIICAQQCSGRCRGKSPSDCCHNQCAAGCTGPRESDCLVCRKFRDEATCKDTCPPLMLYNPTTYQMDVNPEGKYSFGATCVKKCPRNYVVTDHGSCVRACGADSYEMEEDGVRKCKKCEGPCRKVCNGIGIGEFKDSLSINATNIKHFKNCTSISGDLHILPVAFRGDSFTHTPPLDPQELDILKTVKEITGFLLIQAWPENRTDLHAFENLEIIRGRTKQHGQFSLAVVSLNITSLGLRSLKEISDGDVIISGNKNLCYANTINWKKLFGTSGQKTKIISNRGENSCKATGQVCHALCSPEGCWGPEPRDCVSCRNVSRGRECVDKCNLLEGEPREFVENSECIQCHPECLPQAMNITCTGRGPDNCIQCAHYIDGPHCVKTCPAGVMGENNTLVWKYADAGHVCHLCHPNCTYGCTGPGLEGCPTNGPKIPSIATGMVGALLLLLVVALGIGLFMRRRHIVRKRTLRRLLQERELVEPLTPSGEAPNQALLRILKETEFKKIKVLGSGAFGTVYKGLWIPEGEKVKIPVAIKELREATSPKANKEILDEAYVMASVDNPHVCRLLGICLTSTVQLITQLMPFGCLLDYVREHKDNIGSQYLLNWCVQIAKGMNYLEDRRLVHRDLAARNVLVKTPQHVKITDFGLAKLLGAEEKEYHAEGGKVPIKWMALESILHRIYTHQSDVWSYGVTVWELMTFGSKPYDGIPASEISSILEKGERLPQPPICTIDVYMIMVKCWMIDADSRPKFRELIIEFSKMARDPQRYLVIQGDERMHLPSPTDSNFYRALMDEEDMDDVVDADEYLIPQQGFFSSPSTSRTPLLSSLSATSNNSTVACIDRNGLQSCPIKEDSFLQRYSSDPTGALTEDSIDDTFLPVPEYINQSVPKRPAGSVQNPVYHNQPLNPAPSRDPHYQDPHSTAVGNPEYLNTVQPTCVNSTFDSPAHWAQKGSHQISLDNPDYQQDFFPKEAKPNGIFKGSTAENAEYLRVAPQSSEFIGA
Chain of Dual specificity testis-specific protein kinase 1 (Homo sapiens) (Q15569 whole entry, looked up): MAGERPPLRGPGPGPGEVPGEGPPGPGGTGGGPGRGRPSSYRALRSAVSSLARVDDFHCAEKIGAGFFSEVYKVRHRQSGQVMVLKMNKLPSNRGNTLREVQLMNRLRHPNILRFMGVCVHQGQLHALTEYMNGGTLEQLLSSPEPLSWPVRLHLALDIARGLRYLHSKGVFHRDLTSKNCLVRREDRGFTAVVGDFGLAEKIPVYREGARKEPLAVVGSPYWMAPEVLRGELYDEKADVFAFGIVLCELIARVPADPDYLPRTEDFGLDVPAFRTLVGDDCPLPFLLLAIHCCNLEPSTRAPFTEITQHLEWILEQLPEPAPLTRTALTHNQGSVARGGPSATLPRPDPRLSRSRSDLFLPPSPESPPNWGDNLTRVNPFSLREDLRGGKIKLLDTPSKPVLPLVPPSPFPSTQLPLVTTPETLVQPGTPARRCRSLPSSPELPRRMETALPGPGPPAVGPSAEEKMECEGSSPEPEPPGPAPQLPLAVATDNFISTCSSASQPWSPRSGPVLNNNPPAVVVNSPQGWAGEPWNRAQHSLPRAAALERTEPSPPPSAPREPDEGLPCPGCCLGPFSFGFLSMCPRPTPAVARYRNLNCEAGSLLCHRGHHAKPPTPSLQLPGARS

## COc1cc(N(C)c2ccnc3ccc(C(F)(F)F)cc23)cc(OC)c1OC
[1]
  % binding: 94%
[2]
  % binding: 98%

## C=CC(=O)Nc1cc(-n2c(=O)ccc3cnc4ccc(-c5ccc(NS(C)(=O)=O)cc5)cc4c32)ccc1C
[3]
  % of control: 100%

## Cc1cc(F)c(C(=O)Nc2cccc(-c3nncn3C(C)C)n2)cc1-n1cnc(C2CC2)c1
[4]
  % of control: 100%

## Nc1cnc(N2CCc3cc(S(=O)(=O)Nc4c(F)cc(Cl)cc4F)cc(N4CCCC4=O)c32)nc1 [TP-020n]
[5]
  % of control: 93%

## Cc1cc([C@@H](C)Nc2ccccc2C(=O)O)c2nc(N3CCOCC3)cc(=O)n2c1 [AZD-6482]
[6]
  % of control: 96%

## CC(=O)c1cc(-c2ccccc2OCC2CC2)c2ncccn12
[7]
  % of control: 96%

## O[C@H]1CC[C@H](Nc2ncc3nc(Nc4c(F)cc(F)cc4F)n([C@H]4CCOC4)c3n2)CC1
[8]
  % of control: 78%

## CC[C@@H]1[C@H](F)C(=O)N[C@@H]1COc1nccc2cc(C(N)=O)c(OC)cc12 [ZIMLOVISERTIB]
[9]
  % of inhibition: 8.62%

## CN(C)CCOc1ccc(-c2nc(-c3ccncc3)c(-c3ccc4c(c3)CC/C4=N\O)[nH]2)cc1
[10]
  % of control: 8.6%
[11]
  % of control: 100%
